Laboratory results: article PMC2488398, “Concurrence of Danish Dementia and Cataract: Insights from the Interactions of Dementia Associated Peptides with Eye Lens α-Crystallin” (PLoS ONE, 2008)

Tested on: rat lens
Test: Lens protein content in peptide-treated rat lenses
Assay type: cell-based, Wistar rat
Settings: 10 µM peptide, 96 h
Method: Eyes were enucleated from 4 months old Wistar rats, obtained from National Center for Laboratory Animal Services, National Institute of Nutrition, Hyderabad immediately after sacrifice by cervical dislocation. Animal care and protocols were in accordance with and approved by Institutional Animal Ethics Committee. Lenses were dissected from the eyes by anterior approach. Each isolated lens was incubated in 2 ml of modified of TC-199 (Sigma) medium with antibiotics. Osmolarity of the medium was adjusted to 295 milli osmomoles using an osmometer (Micro Osmometer; Model-210, Fiske Associates, Norwood, MA, USA). Lenses were cultured as described previously, [33]. Lenses were incubated at 37°C under 95% air and 5% CO2 in the absence or presence of the various dementia associated peptides dissolved in DMSO for a period of 96 h. All the reagents/chemicals used for lens organ culture were filtered through 0.2 µm Millipore disc filters. Final concentration of a given dementia associated peptides in the culture medium was kept at 10 µM. Medium was changed every 24 h. At the end of incubation, lenses were kept on a grid (12/cm) for assessing the transparency by placing them above a light source.
Lenses were homogenized in 10 vol. of 0.05 M Tris buffer (pH 8.0), containing 0.1 M NaCl and 0.02% sodium azide. The homogenate was centrifuged at 15 000 g for 30 min at 4°C and the resulting supernatant was collected (soluble fraction). The pellet was washed thrice and constituted in the same buffer (insoluble fraction). Protein content in soluble and insoluble fractions was estimated by Lowry's method.

## Aβ (1–42): column label of Table 1; text gives the same value for Aβ-40
15 000 g pellet, Lowry's method, Control 95
  Insoluble protein: 145 mg/g lens
15 000 g supernatant, Lowry's method, Control 421
  Soluble protein: 310 mg/g lens
Lowry's method, Control 518
  Total protein: 464 mg/g lens
In relation to the amount of total protein, Control 81
  % Soluble protein: 67%
